# Measured values reported in PubChem BioAssay AID1963440 (Molecular Pharmacology Branch, DTP, NCI, 2024).
# System: NCI-H1417 complex spheroids, growth % test/control
# Test: Anticancer human tumor NCI-H1417 cell line growth inhibition [Asc];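 note: spheroids exposed to compounds for 7 days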;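 for viability, T/C: 100% = DMSO vehicle control wells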
# Conditions: for IC50: curve of first compound; for viability, T/C: stronger effect = lower value
# In short: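 Spheroid model: tumor line + HUVEC + hMSC. Single agents and combinations; top conc. at/near clinical Cmax (10 microM if undetermined), half-log dilutions. DMSO stocks at 800-fold test concentration.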
# [1] = second compound 0.1 µM, first compound 0.0316 µM
# [2] = second compound 0.1 µM, first compound 0.1 µM
# [3] = second compound 0.1 µM, first compound 0.316 µM
# [4] = second compound 0.1 µM, first compound 1 µM
# [5] = second compound 0.1 µM, first compound 3.16 µM
# [6] = second compound 0.1 µM, first compound 10 µM
# [7] = second compound 0.316 µM, first compound 0.0316 µM
# [8] = second compound 0.316 µM, first compound 0.1 µM
# [9] = second compound 0.316 µM, first compound 0.316 µM
# [10] = second compound 0.316 µM, first compound 1 µM
# [11] = second compound 0.316 µM, first compound 3.16 µM
# [12] = second compound 0.316 µM, first compound 10 µM
# [13] = second compound 1 µM, first compound 0.0316 µM
# [14] = second compound 1 µM, first compound 0.1 µM
# [15] = second compound 1 µM, first compound 0.316 µM
# [16] = second compound 1 µM, first compound 1 µM
# [17] = second compound 1 µM, first compound 3.16 µM
# [18] = second compound 1 µM, first compound 10 µM
structure (smiles),measurement,setting,value
C=C(F)C(=O)N1CCN(c2nc(OCC3CCCN3C)nc3c2CCN(c2cccc4cccc(Cl)c24)C3)CC1CC#N (stereo not given) + CNC(C)C(=O)NC1CN(S(=O)(=O)c2cccc(S(=O)(=O)N3CCC4CCC(C(=O)NC(c5ccccc5)c5ccccc5)N4C(=O)C(NC(=O)C(C)NC)C3)c2)CCC2CCC(C(=O)NC(c3ccccc3)c3ccccc3)N2C1=O,IC50,second compound 0.01 µM,4.6 µM
same,IC50,second compound 0.0316 µM,3.76 µM
same,IC50,second compound 0.1 µM,3.98 µM
same,IC50,second compound 0.316 µM,3.07 µM
same,IC50,second compound 1 µM,3.23 µM
same,"viability, T/C","second compound 0.01 µM, first compound 0.0316 µM",111%
same,"viability, T/C","second compound 0.01 µM, first compound 0.1 µM",101%
same,"viability, T/C","second compound 0.01 µM, first compound 0.316 µM",106%
same,"viability, T/C","second compound 0.01 µM, first compound 1 µM",92.2%
same,"viability, T/C","second compound 0.01 µM, first compound 3.16 µM",76.2%
same,"viability, T/C","second compound 0.01 µM, first compound 10 µM",0.22%
same,"viability, T/C","second compound 0.0316 µM, first compound 0.0316 µM",98.6%
same,"viability, T/C","second compound 0.0316 µM, first compound 0.1 µM",102%
same,"viability, T/C","second compound 0.0316 µM, first compound 0.316 µM",93.2%
same,"viability, T/C","second compound 0.0316 µM, first compound 1 µM",105%
same,"viability, T/C","second compound 0.0316 µM, first compound 3.16 µM",58.8%
same,"viability, T/C","second compound 0.0316 µM, first compound 10 µM",0.2%
same,"viability, T/C",[1],90.6%
same,"viability, T/C",[2],99.5%
same,"viability, T/C",[3],89.8%
same,"viability, T/C",[4],90%
same,"viability, T/C",[5],62.3%
same,"viability, T/C",[6],0.2%
same,"viability, T/C",[7],94.5%
same,"viability, T/C",[8],90.8%
same,"viability, T/C",[9],94.8%
same,"viability, T/C",[10],97.1%
same,"viability, T/C",[11],48.9%
same,"viability, T/C",[12],0.21%
same,"viability, T/C",[13],95.2%
same,"viability, T/C",[14],101%
same,"viability, T/C",[15],106%
same,"viability, T/C",[16],101%
same,"viability, T/C",[17],50.9%
same,"viability, T/C",[18],1.03%
CCN1C(C(=O)NC23CCC(C(=O)O)(CC2)CC3)C(c2cccc(Cl)c2F)C2(C(=O)Nc3cc(Cl)ccc32)C12CCCCC2 (stereo not given) + CNC(C)C(=O)NC1CN(S(=O)(=O)c2cccc(S(=O)(=O)N3CCC4CCC(C(=O)NC(c5ccccc5)c5ccccc5)N4C(=O)C(NC(=O)C(C)NC)C3)c2)CCC2CCC(C(=O)NC(c3ccccc3)c3ccccc3)N2C1=O,IC50,second compound 0.01 µM,> 3 µM
same,IC50,second compound 0.0316 µM,> 3 µM
same,IC50,second compound 0.1 µM,> 3 µM
same,IC50,second compound 0.316 µM,> 3 µM
same,IC50,second compound 1 µM,> 3 µM
same,"viability, T/C","second compound 0.01 µM, first compound 0.00949 µM",105%
same,"viability, T/C","second compound 0.01 µM, first compound 0.03 µM",104%
same,"viability, T/C","second compound 0.01 µM, first compound 0.0949 µM",105%
same,"viability, T/C","second compound 0.01 µM, first compound 0.3 µM",99.7%
same,"viability, T/C","second compound 0.01 µM, first compound 0.949 µM",106%
same,"viability, T/C","second compound 0.01 µM, first compound 3 µM",120%
same,"viability, T/C","second compound 0.0316 µM, first compound 0.00949 µM",107%
same,"viability, T/C","second compound 0.0316 µM, first compound 0.03 µM",118%
same,"viability, T/C","second compound 0.0316 µM, first compound 0.0949 µM",106%
same,"viability, T/C","second compound 0.0316 µM, first compound 0.3 µM",86%
same,"viability, T/C","second compound 0.0316 µM, first compound 0.949 µM",101%
same,"viability, T/C","second compound 0.0316 µM, first compound 3 µM",96.2%
same,"viability, T/C","second compound 0.1 µM, first compound 0.00949 µM",103%
same,"viability, T/C","second compound 0.1 µM, first compound 0.03 µM",102%
same,"viability, T/C","second compound 0.1 µM, first compound 0.0949 µM",99.7%
same,"viability, T/C","second compound 0.1 µM, first compound 0.3 µM",88.6%
same,"viability, T/C","second compound 0.1 µM, first compound 0.949 µM",95.7%
same,"viability, T/C","second compound 0.1 µM, first compound 3 µM",120%
same,"viability, T/C","second compound 0.316 µM, first compound 0.00949 µM",105%
same,"viability, T/C","second compound 0.316 µM, first compound 0.03 µM",95.1%
same,"viability, T/C","second compound 0.316 µM, first compound 0.0949 µM",105%
same,"viability, T/C","second compound 0.316 µM, first compound 0.3 µM",102%
same,"viability, T/C","second compound 0.316 µM, first compound 0.949 µM",104%
same,"viability, T/C","second compound 0.316 µM, first compound 3 µM",108%
same,"viability, T/C","second compound 1 µM, first compound 0.00949 µM",110%
same,"viability, T/C","second compound 1 µM, first compound 0.03 µM",108%
same,"viability, T/C","second compound 1 µM, first compound 0.0949 µM",106%
same,"viability, T/C","second compound 1 µM, first compound 0.3 µM",108%
same,"viability, T/C","second compound 1 µM, first compound 0.949 µM",95.4%
same,"viability, T/C","second compound 1 µM, first compound 3 µM",106%
O=C(c1cc(Cc2n[nH]c(=O)c3ccccc23)ccc1F)N1CCN(C(=O)C2CC2)CC1 + Cc1c(S(C)(=O)=O)c(-c2cc(F)cc(N3CCN(c4ccc(NS(=O)(=O)c5ccc(NC(CCN6CCC(C(=O)OCCCP(=O)(O)O)CC6)CSc6ccccc6)c(S(=O)(=O)C(F)(F)F)c5)cc4)CC3)c2)c(-c2ccc(Cl)cc2)n1C(C)C,IC50,second compound 0.1 µM,1.11 µM
same,IC50,second compound 0.316 µM,< 0.0316 µM
same,IC50,second compound 1 µM,< 0.0316 µM
same,IC50,second compound 3.16 µM,< 0.0316 µM
same,IC50,second compound 10 µM,< 0.0316 µM
same,"viability, T/C",[1],78.7%
same,"viability, T/C",[2],78.5%
same,"viability, T/C",[3],69.3%
same,"viability, T/C",[4],52.8%
same,"viability, T/C",[5],25.5%
same,"viability, T/C",[6],5.06%
same,"viability, T/C",[7],44.5%
same,"viability, T/C",[8],37%
same,"viability, T/C",[9],35.1%
same,"viability, T/C",[10],23.2%
same,"viability, T/C",[11],7.41%
same,"viability, T/C",[12],3.61%
same,"viability, T/C",[13],10.6%
same,"viability, T/C",[14],14.2%
same,"viability, T/C",[15],8.49%
same,"viability, T/C",[16],5.49%
same,"viability, T/C",[17],2.71%
same,"viability, T/C",[18],3.64%
same,"viability, T/C","second compound 3.16 µM, first compound 0.0316 µM",2.9%
same,"viability, T/C","second compound 3.16 µM, first compound 0.1 µM",2.62%
same,"viability, T/C","second compound 3.16 µM, first compound 0.316 µM",2.54%
same,"viability, T/C","second compound 3.16 µM, first compound 1 µM",2.33%
same,"viability, T/C","second compound 3.16 µM, first compound 3.16 µM",2.43%
same,"viability, T/C","second compound 3.16 µM, first compound 10 µM",2.96%
same,"viability, T/C","second compound 10 µM, first compound 0.0316 µM",2.71%
same,"viability, T/C","second compound 10 µM, first compound 0.1 µM",2.63%
same,"viability, T/C","second compound 10 µM, first compound 0.316 µM",2.54%
same,"viability, T/C","second compound 10 µM, first compound 1 µM",1.96%
same,"viability, T/C","second compound 10 µM, first compound 3.16 µM",2.66%
same,"viability, T/C","second compound 10 µM, first compound 10 µM",3.21%
